# Like-named read-outs stand apart in the source and are kept apart here.
# Tests used:
# DLD1 wild type = assay: Cell viability assay (CTG assay), DLD1 wild type cells; type: cell-based; conditions: Homo sapiens, DLD-1, 240 h; CellTiter Glo, read on Day 10, initial concentration 30 µM
# Protocol: (§1) 2. Cell Viability Assay of Pol θ Inhibitor
# (§2) The cell viability assay, i.e., the commonly used CTG assay, was conducted for the efficacy of the inhibitor in vitro using the CellTiter Glo reagent (Promega, G7573).
# [1] = molecular target: helicase domain of the Pol θ protein (Homo sapiens, UniProt O75417); type: biochemical
# Protocol: Biochemical Activity Assay (ADP Glo Assay) of Pol θ Inhibitor
# The specific assay method was as follows: • 1) The helicase domain of the Pol θ protein was purified by an insect system, to obtain the protein with a purity of >90%. ssDNA (5'-[sequence]-3', Hangzhou Yocon Biotechnology Co., Ltd.) was ordered as the substrate for the Pol θ protein; and a reaction buffer containing 10 mM DTT (Dithiothreitol), 20 mM MgCl2 and Tris-HCl pH 7.5 was prepared. • 2) The 2x ssDNA-Pol θ premix was prepared; the reaction was conducted in a 384-well plate; a control group with only buffer is set, and the premix was added to the rest of the groups.
# DLD1 BRCA2-/- cells = assay: Cell viability assay (CTG assay), DLD1 BRCA2-/- cells; type: cell-based; conditions: Homo sapiens, DLD-1, 240 h; CellTiter Glo, read on Day 10, initial concentration 30 µM
# Protocol: as §1, §2
# [2] = ATPase activity, ADP-Glo, ssDNA substrate, 60 min at room temperature, initial concentration 10 µM, read-out: Biochemical experiment IC50
# Sequence of helicase domain of the Pol θ protein (O75417 102-554 limits assumed): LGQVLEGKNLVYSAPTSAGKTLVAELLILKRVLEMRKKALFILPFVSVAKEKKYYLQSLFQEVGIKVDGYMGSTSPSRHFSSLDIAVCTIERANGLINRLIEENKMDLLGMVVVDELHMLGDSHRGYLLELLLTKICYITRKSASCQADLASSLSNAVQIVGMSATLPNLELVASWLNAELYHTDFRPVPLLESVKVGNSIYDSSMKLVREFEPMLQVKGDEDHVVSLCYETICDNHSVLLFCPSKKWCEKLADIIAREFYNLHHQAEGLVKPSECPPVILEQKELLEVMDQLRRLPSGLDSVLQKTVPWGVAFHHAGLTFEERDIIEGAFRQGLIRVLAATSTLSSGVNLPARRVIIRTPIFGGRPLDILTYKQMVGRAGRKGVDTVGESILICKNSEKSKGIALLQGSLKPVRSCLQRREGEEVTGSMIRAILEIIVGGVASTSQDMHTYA
IC50 (DLD1 wild type) [nM],"IC50 [1, 2] [nM]",IC50 (DLD1 BRCA2-/- cells) [nM],SMILES,IC50 [1] [nM]
4300,25.1,5.62,"COc1cnc(C(F)F)cc1-c1cc(-n2cccc(F)c2=O)ncc1C(=O)Nc1nc(-c2ncccn2)ns1 [Example 18, 2""-(difluoromethyl)-3-fluoro-5""-methoxy-2-oxo-N-(3-(pyrimidin-2-yl)-1,2,4-thiadiazol-5-yl)-2H-[1,2':4',4""-terpyridine]-5'-carboxamide]",–
> 5000,32.1,56.2,"COc1cnc(C(F)F)cc1-c1cc(-n2cccc(F)c2=O)ncc1C(=O)Nc1nc(-c2cnccn2)ns1 [Example 19, 2""-(difluoromethyl)-3-fluoro-5""-methoxy-2-oxo-N-(3-(pyrazin-2-yl)-1,2,4-thiadiazol-5-yl)-2H-[1,2':4',4""-terpyridine]-5'-carboxamide]",–
> 5000,8.31,22.4,"COc1cnc(C(F)F)cc1-c1cc(-n2cccc(F)c2=O)ncc1C(=O)Nc1nc(Cl)ns1 [Example 20, N-(3-chloro-1,2,4-thiadiazol-5-yl)-2""-(difluoromethyl)-3-fluoro-5""-methoxy-2-oxo-2H-[1,2':4',4""-terpyridine]-5'-carboxamide]",–
> 5000,8.57,7.64,"COc1cnc(Cl)cc1-c1cc(-n2cccc(F)c2=O)ncc1C(=O)Nc1nc(C2CC2)ns1 [Example 21, 2""-chloro-N-(3-cyclopropyl-1,2,4-thiadiazol-5-yl)-3-fluoro-5""-methoxy-2-oxo-2H-[1,2':4',4""-terpyridine]-5'-carboxamide]",–
> 5000,3.41,5.01,"COc1cnc(C(F)F)cc1-c1cc(-n2cccc(F)c2=O)ncc1C(=O)Nc1nc(-c2c(C)noc2C)ns1 [Example 22, 2""-(difluoromethyl)-N-(3-(3,5-dimethylisoxazol-4-yl)-1,2,4-thiadiazol-5-yl)-3-fluoro-5""-methoxy-2-oxo-2H-[1,2':4',4""-terpyridine]-5'-carboxamide]",–
> 5000,2.29,0.82,"COc1cnc(Cl)cc1-c1cc(-n2cccc(F)c2=O)ncc1C(=O)Nc1nc(-c2c(C)cnn2C)ns1 [Example 26, 2""-chloro-N-(3-(1,4-dimethyl-1H-pyrazol-5-yl)-1,2,4-thiadiazol-5-yl)-3-fluoro-5""-methoxy-2-oxo-2H-[1,2':4',4""-terpyridin]-5'-carboxamide]",–
> 5000,11,24.2,"COc1cnc(C(F)F)cc1-c1cc(-n2cccc(F)c2=O)ncc1C(=O)Nc1nc(N2CC3CC3C2)ns1 (stereo not drawn) [Example 28, N-(3-(3-azabicyclo[3,1,0]hex-3-yl)-1,2,4-thiadiazol-5-yl)-2""-(difluoromethyl)-3-fluoro-5""-methoxy-2-oxo-2H-[1,2':4',4""-terpyridin]-5'-carboxamide]",–
> 5000,6.11,13.1,"COc1cnc(C(F)F)cc1-c1cc(-n2cccc(F)c2=O)ncc1C(=O)Nc1nc(-c2c(C)ncn2C)ns1 [Example 32, 2""-(difluoromethyl)-N-(3-(1,4-dimethyl-1H-imidazol-5-yl)-1,2,4-thiadiazol-5-yl)-3-fluoro-5""-methoxy-2-oxo-2H-[1,2':4',4""-terpyridin]-5'-carboxamide]",–

# More lines, now with the values behind:
SMILES,IC50 (DLD1 wild type) [nM],"IC50 [1, 2] [nM]",IC50 (DLD1 BRCA2-/- cells) [nM],IC50 [1] [nM]
"COc1nsc(NC(=O)c2cnc(-n3cccc(F)c3=O)cc2-c2cc(C(F)F)ncc2OC)n1 [Example 7, 2""-(difluoromethyl)-3-fluoro-5""-methoxy-N-(3-methoxy-1,2,4-thiadiazol-5-yl)-2-oxo-2H-[1,2':4',4""-terpyridine]-5'-carboxamide]",> 50000,4.02,56.2,–
"COc1cnc(C(F)F)cc1-c1cc(-n2cccc(F)c2=O)ncc1C(=O)Nc1nc(-c2ccccn2)ns1 [Example 8, 2""-(difluoromethyl)-3-fluoro-5""-methoxy-2-oxo-N-(3-(pyridin-2-yl)-1,2,4-thiadiazol-5-yl)-2H-[1,2':4',4""-terpyridine]-5'-carboxamide]",19200,8.23,56.2,–
"COc1cnc(C(F)F)cc1-c1cc(-n2cccc(F)c2=O)ncc1C(=O)Nc1nc(-c2ccccc2)ns1 [Example 9, 2""-(difluoromethyl)-3-fluoro-5""-methoxy-2-oxo-N-(3-phenyl-1,2,4-thiadiazol-5-yl)-2H-[1,2':4',4""-terpyridine]-5'-carboxamide]",> 50000,13.4,32.9,–
"COc1cnc(C(F)F)cc1-c1cc(-n2cccc(F)c2=O)ncc1C(=O)Nc1ncns1 [Example 10, 2""-(difluoromethyl)-3-fluoro-5""-methoxy-2-oxo-N-(1,2,4-thiadiazol-5-yl)-2H-[1,2':4',4''-terpyridine]-5'-carboxamide]",> 50000,5.81,89.1,–
"COc1cnc(C(F)F)cc1-c1cc(-n2cccc(F)c2=O)ncc1C(=O)Nc1nc(C)ns1 [Example 11, 2""-(difluoromethyl)-3-fluoro-5""-methoxy-N-(3-methyl-1,2,4-thiadiazol-5-yl)-2-oxo-2H-[1,2':4',4""-terpyridine]-5'-carboxamide]",> 50000,14,171,–
"COc1cnc(C(F)F)cc1-c1cc(-n2cccc(F)c2=O)ncc1C(=O)Nc1nc(-c2cccnc2)ns1 [Example 13, 2""-(difluoromethyl)-3-fluoro-5""-methoxy-2-oxo-N-(3-(pyridin-3-yl)-1,2,4-thiadiazol-5-yl)-2H-[1,2':4',4""-terpyridine]-5'-carboxamide]",> 50000,17.6,54.1,–
"COc1cnc(C(F)F)cc1-c1cc(-n2cccc(F)c2=O)ncc1C(=O)Nc1nc(-c2c(C)cnn2C)ns1 [Example 14, 2""-(difluoromethyl)-N-(3-(1,4-dimethyl-1H-pyrazol-5-yl)-1,2,4-thiadiazol-5-yl)-3-fluoro-5""-methoxy-2-oxo-2H-[1,2':4',4""-terpyridine]-5'-carboxamide]",> 50000,3.63,4.82,–
"COc1cnc(C(F)F)cc1-c1cc(-n2cccc(F)c2=O)ncc1C(=O)Nc1nc(-c2ccncc2)ns1 [Example 15, 2""-(difluoromethyl)-3-fluoro-5""-methoxy-2-oxo-N-(3-(pyridin-4-yl)-1,2,4-thiadiazol-5-yl)-2H-[1,2':4',4""-terpyridine]-5'-carboxamide]",> 5000,5.58,10.8,–
"CCCc1nsc(NC(=O)c2cnc(-n3cccc(F)c3=O)cc2-c2cc(C(F)F)ncc2OC)n1 [Example 16, 2""-(difluoromethyl)-3-fluoro-5""-methoxy-2-oxo-N-(3-propyl-1,2,4-thiadiazol-5-yl)-2H-[1,2':4',4""-terpyridine]-5'-carboxamide]",> 5000,9.69,10,–
"COc1cnc(C(F)F)cc1-c1cc(-n2cccc(F)c2=O)ncc1C(=O)Nc1nc(C(C)C)ns1 [Example 17, 2""-(difluoromethyl)-3-fluoro-N-(3-isopropyl-1,2,4-thiadiazol-5-yl)-5""-methoxy-2-oxo-2H-[1,2':4',4""-terpyridine]-5'-carboxamide]",> 5000,8.98,3.98,–
COc1cnc(C(F)F)cc1-c1cc(-n2cccc(F)c2=O)ncc1C(=O)Nc1nc(-c2ccc(Cl)cc2)ns1 [Example 23],> 50000,–,185,170
COc1cnc(C(F)F)cc1-c1cc(-n2cccc(F)c2=O)ncc1C(=O)Nc1nc(N2CCOCC2)ns1 [Example 24],> 5000,–,15.3,20.3
"COc1cnc(C(F)F)cc1-c1cc(-n2cccc(F)c2=O)ncc1C(=O)Nc1nc(N2CC3(COC3)C2)ns1 [Example 25, N-(3-(2-oxa-6-azaspiro[3.3]heptan-6-yl)-1,2,4-thiadiazol-5-yl)-2""-(difluoromethyl)-3-fluoro-5""-methoxy-2-oxo-2H-[1,2':4',4""-bipyridin]-5'-carboxamide]",> 5000,–,242,42.3
"COc1cnc(C(F)F)cc1-c1cc(-n2cccc(F)c2=O)ncc1C(=O)Nc1nc(C2CCC2)ns1 [Example 33, N-(3-cyclobutyl-1,2,4-thiadiazol-5-yl)-2""-(difluoromethyl)-3-fluoro-5""-methoxy-2-oxo-2H-[1,2"":4'4""-bipyridin]-5'-carboxamide]",> 5000,–,8.57,4.11

# Source: patent EP4741390A1, “BIARYL RING COMPOUND, INTERMEDIATE THEREOF, PREPARATION METHOD THEREFOR AND USE THEREOF” (Hangzhou Synrx Therapeutics Biomedical Technology Co., Ltd., priority 2023, dated 2025)
